From ChEMBL document CHEMBL1128378, “Use of medium-sized cycloalkyl rings to enhance secondary binding: discovery of a new class of human immunodeficiency virus (HIV) protease inhibitors” (J Med Chem, 1995)
Values belong to the molecule of their own block, whether it stands above or below them.

Tests used:
[1] = tested on: HIV-1 protease (Human immunodeficiency virus 1); test: Inhibition against HIV protease at 1 uM
[2] = tested on: HIV-1 protease (Human immunodeficiency virus 1); test: Binding affinity against HIV protease.; Not determined due to low enzyme inhibition
[3] = tested on: HIV-1 protease (Human immunodeficiency virus 1); test: Binding affinity against HIV protease at 1 uM
[4] = tested on: HIV-1 protease (Human immunodeficiency virus 1); test: Binding affinity against HIV protease at 30 uM concentration
[5] = Maximum plasma concentration for the compound in solution form (formulation) was determined in rats at peroral dose of 5 mg/kg; assay type: ADME, organism-based; parameters: dose 5 mg/kg, route oral; conditions: rat, po
[6] = Maximum plasma concentration for the compound in suspension form (formulation) was determined in rats at peroral dose of 5 mg/kg; assay type: ADME, organism-based; parameters: dose 5 mg/kg, route oral; conditions: rat, po
[7] = Time taken for maximum plasma concentration for the compound in solution form (formulation) was determined in rats at peroral dose of 5 mg/kg; assay type: ADME, organism-based; parameters: dose 5 mg/kg, route oral; conditions: rat, po
[8] = Time taken for maximum plasma concentration for the compound in suspension form (formulation) was determined in rats at peroral dose of 5 mg/kg; assay type: ADME, organism-based; parameters: dose 5 mg/kg, route oral; conditions: rat, po
[9] = tested on: HIV-1 protease (Human immunodeficiency virus 1); test: Binding affinity against HIV protease at 30 uM

SMILES: O=c1c2c(oc(O)c1C(c1ccccc1)C1CC1)CCCCCCCCCC2 (configuration not stated)
inhibition [1]: < 10%
Ki [2]: Low inhibition

SMILES: CC(c1ccccc1)c1c(O)c2c(oc1=O)CCCCCC2 (configuration not stated)
inhibition [3]: 10%

SMILES: O=c1c(CCCc2ccccc2)c(O)oc2c1CCCCCC2
inhibition [4]: 38%

SMILES: O=c1c(CCc2ccccc2)c(O)oc2c1CCCCCC2
inhibition [9]: < 10%

SMILES: O=c1c(Cc2ccccc2)c(O)oc2c1CCCCCC2
inhibition [9]: < 10%

Continued, values first:

inhibition [1]: 94%
SMILES: O=c1c2c(oc(O)c1C(c1ccccc1)C1CC1)CCCCCCC2 (configuration not stated)

inhibition [1]: 23%
SMILES: O=c1c2c(oc(O)c1C(c1ccccc1)C1CC1)CCCCCCCC2 (configuration not stated)

inhibition [1]: 40%
Ki [2]: Low inhibition
SMILES: O=c1c2c(oc(O)c1C(c1ccccc1)C1CC1)CCC2 (configuration not stated)

inhibition [1]: 70%
SMILES: O=c1c2c(oc(O)c1C(c1ccccc1)C1CC1)CCCCC2 (configuration not stated)

inhibition [1]: 62%
SMILES: O=c1c2c(oc(O)c1C(c1ccccc1)C1CC1)CCCC2 (configuration not stated)

Cmax [5]: 40.8 µM
Cmax [6]: 30.3 µM
Tmax [7]: 3.7 h
Tmax [8]: 6 h
inhibition [1]: 95%
SMILES: O=c1c2c(oc(O)c1C(c1ccccc1)C1CC1)CCCCCC2 (configuration not stated)
